Laboratory results as given in the NIST ThermoML archive (doi:10.1016/j.tca.2018.05.017).
Numbers after ± are expanded uncertainties.

Settings: Crystal; DTA

## CCCCCCCC[NH+](CCCCCCCC)CCCCCCCC.[Cl-] [trioctylammonium chloride]
  Normal melting temperature: 72.20 ± 5 °C
